According to patent publication US11813306B2, “Cyclic tetramer compounds as proprotein convertase subtilisin/kexin type 9 (PCSK9) inhibitors for the treatment of metabolic disorders” (NOVARTIS AG, priority 2018, dated 2023):
Read-outs that look alike come from different tables or passages of the source.

Key:
[1] = DCM
human PCSK9 = human PCSK9 (Homo sapiens, UniProt Q8NBP7); test: PCSK9 ligand binding assay (TR-FRET): interference with binding of human PCSK9 to human LDLR; conditions: for IC50: Human PCSK9 Alexa Fluor 647 / Human LDLR extracellular domain-Europium Kryptate; for Max % inhibition: efficacy (Amax), 100% = 1 uM unlabeled human PCSK9, 0% = DMSO
human PCSK9, sequence (Q8NBP7 153-692): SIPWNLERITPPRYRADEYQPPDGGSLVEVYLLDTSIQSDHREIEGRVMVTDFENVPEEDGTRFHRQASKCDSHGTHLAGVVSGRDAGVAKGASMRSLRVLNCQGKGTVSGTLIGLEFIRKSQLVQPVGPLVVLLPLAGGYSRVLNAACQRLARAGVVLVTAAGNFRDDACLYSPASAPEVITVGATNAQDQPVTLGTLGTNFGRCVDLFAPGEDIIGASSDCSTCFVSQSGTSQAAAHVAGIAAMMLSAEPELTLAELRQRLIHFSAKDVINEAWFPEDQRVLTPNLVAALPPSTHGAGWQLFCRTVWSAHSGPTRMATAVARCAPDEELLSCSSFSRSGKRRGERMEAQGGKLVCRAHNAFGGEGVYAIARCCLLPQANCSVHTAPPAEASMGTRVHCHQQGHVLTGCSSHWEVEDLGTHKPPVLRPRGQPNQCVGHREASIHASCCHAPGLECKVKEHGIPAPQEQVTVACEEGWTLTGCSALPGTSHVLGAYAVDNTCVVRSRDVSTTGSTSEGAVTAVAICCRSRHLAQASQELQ
human PCSK9, sequence (Q8NBP7 31-152 partner limits assumed): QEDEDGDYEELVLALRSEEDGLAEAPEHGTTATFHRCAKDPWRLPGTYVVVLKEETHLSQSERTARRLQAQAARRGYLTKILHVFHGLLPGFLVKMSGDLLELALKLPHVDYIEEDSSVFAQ
Procedure, shortened: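 Read-out was TR-FRET ratio (665 nm over 615 nm, 330 nm excitation) between Alexa Fluor 647-human PCSK9 (16 nM added) and Europium Kryptate-human LDLR ectodomain (4 nM added). Compound and PCSK9 were mixed 30 min before LDLR, then incubated 2 h. Inhibition was normalised to DMSO and unlabelled-PCSK9 controls, giving IC50 and Amax.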

Row | IC50 (human PCSK9) | Max % inhibition (human PCSK9) | SMILES | further results
1 | 0.549 nM | 112.1% | COC[C@@H]1NC(=O)[C@H](C)N(Cc2c(F)cc(Cl)cc2Oc2ccc(-c3cnc(CN(C)C)n3C)cc2)C(=O)C[C@@H](Cc2cccc(C)n2)C(=O)N2CCC[C@@](Cc3ccc(Cl)cc3)(C2)N(C)C1=O [Compound 13, (3R,7S,10S,13R)-6-(4-chloro-2-(4-(2-((dimethylamino)methyl)-1-methyl-1H-imidazol-5-yl)phenoxy)-6-fluorobenzyl)-13-(4-chlorobenzyl)-10-(methoxymethyl)-7,12-dimethyl-3-((6-methylpyridin-2-yl)methyl)-1,6,9,12-tetraazabicyclo[11.3.1]heptadecane-2,5,8,11-tetraone] | ring closure, yield of all isomers ([1]; from COC[C@H](NC(=O)[C@H](C)NCc1c(F)cc(Cl)cc1Oc1ccc(-c2cnc(CN(C)C)n2C)cc1)C(=O)N(C)[C@@]1(Cc2ccc(Cl)cc2)CCCN(C(=O)[C@@H](CC(=O)O)Cc2cccc(C)n2)C1, amide bond, HATU/HOAt/2,6-lutidine, 1.59 mM, 48.0 °C, 16.0 h): 33%
2 | 9.21 nM | 100.8% | COC[C@@H]1NC(=O)[C@H](C)N(Cc2ccc(Cl)cc2Oc2ccc(-c3cnc(CN(C)C)n3C)cc2)C(=O)O[C@@H](Cc2ccccc2)C(=O)N2CCC[C@@](Cc3ccc(Cl)cc3)(C2)NC1=O.Cl [Compound 156, (3S,7S,10S,13R)-3-benzyl-6-(4-chloro-2-(4-(2-((dimethylamino)methyl)-1-methyl-1H-imidazol-5-yl)-phenoxy)benzyl)-13-(4-chlorobenzyl)-10-(methoxymethyl)-7-methyl-4-oxa-1,6,9,12-tetraazabicyclo[11.3.1]heptadecane-2,5,8,11-tetraone hydrochloride] | ring closure, yield of all isomers ([1]; from COC[C@H](NC(=O)[C@H](C)N(Cc1ccc(Cl)cc1Oc1ccc(-c2cnc(CN(C)C)n2C)cc1)C(=O)O[C@@H](Cc1ccccc1)C(=O)O)C(=O)N[C@@]1(Cc2ccc(Cl)cc2)CCCNC1, amide bond, HATU/HOAt, 2,6-lutidine, 0.95 mM, 25.0 °C, 1.5 h): 38%
3 | – | – | COC[C@@H]1NC(=O)[C@H](C)N(Cc2c(F)cc(Cl)cc2Oc2ccc(-c3cnc(CN(C(=O)OC(C)(C)C)C(C)(C)C)n3C)cc2)C(=O)C[C@@H](C2CC(F)(F)C2)C(=O)N2CCC[C@@](Cc3ccc(Cl)cc3)(C2)N(C)C1=O | ring closure, yield of all isomers ([1]; from COC[C@H](NC(=O)[C@H](C)NCc1c(F)cc(Cl)cc1Oc1ccc(-c2cnc(CN(C(=O)OC(C)(C)C)C(C)(C)C)n2C)cc1)C(=O)N(C)[C@@]1(Cc2ccc(Cl)cc2)CCCN(C(=O)[C@@H](CC(=O)O)C2CC(F)(F)C2)C1, amide bond, HATU, 1.82 mM, 42.0 °C): 86%
4 | 0.859 nM | 99.2% | C[C@H]1C(=O)N[C@@H](CO)C(=O)N[C@@]2(Cc3ccc(Cl)cc3)CCCN(C2)C(=O)[C@H](Cc2ccccc2)OC(=O)N1Cc1ccc(Cl)cc1Oc1ccc(-c2cnc(CN(C)C)n2C)cc1.Cl [Compound 78, (3S,7S,10S,13R)-3-benzyl-6-(4-chloro-2-(4-(2-((dimethylamino)methyl)-1-methyl-1H-imidazol-5-yl)phenoxy)benzyl)-13-(4-chlorobenzyl)-10-(hydroxymethyl)-7-methyl-4-oxa-1,6,9,12-tetraazabicyclo[11.3.1]heptadecane-2,5,8,11-tetraone hydrochloride] | ring closure, yield of all isomers ([1]; from C[C@@H](C(=O)N[C@@H](CO)C(=O)N[C@@]1(Cc2ccc(Cl)cc2)CCCNC1)N(Cc1ccc(Cl)cc1Oc1ccc(-c2cnc(CN(C)C)n2C)cc1)C(=O)O[C@@H](Cc1ccccc1)C(=O)O, amide bond, HATU/HOAt, 2,6-lutidine, 1.0 mM, 25.0 °C, 2.25 h, 2 steps): 38%
5 | 0.941 nM | 99.4% | C[C@H]1C(=O)N[C@@H](CO)C(=O)N(C)[C@H](Cc2ccc(Cl)cc2)CN(C)C(=O)[C@H]([C@H]2CCc3ccccc32)CC(=O)N1Cc1ccc(Cl)cc1Oc1ccc(-c2cnc(CN3CCCC3)n2C)cc1.Cl [Compound 86, (2S,5S,8R,12S)-1-(4-chloro-2-(4-(1-methyl-2-(pyrrolidin-1-ylmethyl)-1H-imidazol-5-yl)phenoxy)-benzyl)-8-(4-chlorobenzyl)-12-((R)-2,3-dihydro-1H-inden-1-yl)-5-(hydroxymethyl)-2,7,10-trimethyl-1,4,7,10-tetraazacyclotetradecane-3,6,11,14-tetraone hydrochloride] | ring closure, yield of all isomers ([1]; from C[C@H](NCc1ccc(Cl)cc1Oc1ccc(-c2cnc(CN3CCCC3)n2C)cc1)C(=O)N[C@@H](COC(C)(C)C)C(=O)N(C)[C@H](Cc1ccc(Cl)cc1)CN(C)C(=O)[C@@H](CC(=O)O)[C@H]1CCc2ccccc21, amide bond, HATU, 1.0 mM, 40.0 °C, 29.0 h, 2 steps): 45%
6 | – | – | C[C@H]1C(=O)N[C@@H](CO)C(=O)N(C)[C@@]2(Cc3ccc(Cl)cc3)CCCN(C2)C(=O)[C@H](Cc2cccc[n+]2[O-])CC(=O)N1Cc1ccc(Cl)cc1Oc1ccc(-c2cnc(CN(C)C)n2C)cc1 | ring closure, yield of all isomers ([1]; from C[C@H](NCc1ccc(Cl)cc1Oc1ccc(-c2cnc(CN(C)C)n2C)cc1)C(=O)N[C@@H](CO)C(=O)N(C)[C@@]1(Cc2ccc(Cl)cc2)CCCN(C(=O)[C@@H](CC(=O)O)Cc2cccc[n+]2[O-])C1, amide bond, HATU, 0.83 mM, 48.0 °C, 4.0 h): 100%
7 | – | – | C[C@H]1C(=O)N[C@@H](CO)C(=O)N(C)[C@@]2(Cc3ccc(Cl)cc3)CCCN(C2)C(=O)[C@H](Cc2cccc[n+]2[O-])CC(=O)N1Cc1c(F)cc(Cl)cc1Oc1ccc(-c2cnc(CN(C)C)n2C)cc1 | ring closure, yield of all isomers ([1]; from C[C@H](NCc1c(F)cc(Cl)cc1Oc1ccc(-c2cnc(CN(C)C)n2C)cc1)C(=O)N[C@@H](CO)C(=O)N(C)[C@@]1(Cc2ccc(Cl)cc2)CCCN(C(=O)[C@@H](CC(=O)O)Cc2cccc[n+]2[O-])C1, amide bond, HATU/HOAt/2,6-lutidine, 1.08 mM, 48.0 °C, 4.0 h): 98.8%
8 | 0.476 nM | 106.6% | C[C@H]1C(=O)N[C@@H](CO)C(=O)N[C@@]2(Cc3ccc(Cl)cc3)CCCN(C2)C(=O)[C@H](Cc2ccccc2)NC(=O)N1Cc1ccc(Cl)cc1Oc1ccc(-c2cnc(CN(C)C)n2C)cc1.Cl [Compound 60, (3S,7S,10S,13R)-3-benzyl-6-(4-chloro-2-(4-(2-((dimethylamino)methyl)-1-methyl-1H-imidazol-5-yl)phenoxy)benzyl)-13-(4-chlorobenzyl)-10-(hydroxymethyl)-7-methyl-1,4,6,9,12-pentaaza-bicyclo[11.3.1]-heptadecane-2,5,8,11-tetraone hydrochloride] | ring closure, yield of all isomers ([1]; from C[C@@H](C(=O)N[C@@H](CO)C(=O)N[C@@]1(Cc2ccc(Cl)cc2)CCCNC1)N(Cc1ccc(Cl)cc1Oc1ccc(-c2cnc(CN(C)C)n2C)cc1)C(=O)N[C@@H](Cc1ccccc1)C(=O)O, amide bond, HATU/HOAt/2,6-lutidine, 1.0 mM, 25.0 °C, 2.5 h): 55%
9 | 1490 nM | 76.9% | CC(C)[C@H]1CC(=O)N(Cc2ccc(Cl)cc2Oc2ccc(-c3cnc(CN(C)C)n3C)cc2)[C@@H](C)C(=O)N[C@@H](CO)C(=O)N[C@@]2(Cc3ccc(Cl)cc3)CCCN(C2)C1=O.Cl [Compound 133, (3R,7S,10S,13R)-6-(4-chloro-2-(4-(2-((dimethylamino)methyl)-1-methyl-1H-imidazol-5-yl)phenoxy)benzyl)-13-(4-chlorobenzyl)-10-(hydroxymethyl)-3-isopropyl-7-methyl-1,6,9,12-tetraazabicyclo[11.3.1]heptadecane-2,5,8,11-tetraone hydrochloride] | ring closure, yield of all isomers ([1]; from CC(C)[C@@H](CC(=O)N(Cc1ccc(Cl)cc1Oc1ccc(-c2cnc(CN(C)C)n2C)cc1)[C@@H](C)C(=O)N[C@@H](CO)C(=O)N[C@@]1(Cc2ccc(Cl)cc2)CCCNC1)C(=O)O, amide bond, HATU, 1.0 mM, 25.0 °C, 17.0 h): 59%
10 | 61.2 nM | 102.4% | COC[C@@H]1NC(=O)[C@H](C)N(Cc2ccc(Cl)cc2Oc2ccc(-c3cnc(CN(C)C)n3C)cc2)CC[C@@H](Cc2ccccc2)C(=O)N2CCC[C@@](Cc3ccc(Cl)cc3)(C2)NC1=O.O=C(O)C(F)(F)F [Compound 120, (3R,7S,10S,13R)-3-benzyl-6-(4-chloro-2-(4-(2-((dimethylamino)methyl)-1-methyl-1H-imidazol-5-yl)phenoxy)benzyl)-13-(4-chlorobenzyl)-10-(methoxymethyl)-7-methyl-1,6,9,12-tetraazabicyclo[11.3.1]heptadecane-2,8,11-trione trifluoroacetate] | ring closure, yield of all isomers ([1]; from COC[C@H](NC(=O)[C@H](C)N)C(=O)N[C@@]1(Cc2ccc(Cl)cc2)CCCN(C(=O)[C@@H](CC=O)Cc2ccccc2)C1, amine bond, NaBH(OAc)3/AcOH, 10.0 mM, 25.0 °C, 2.5 h, 4 steps): 0.6%
11 | 2.21 nM | 96.3% | COC[C@@H]1NC(=O)[C@H](C)N(Cc2ccc(Cl)cc2Oc2ccc(-c3cnc(CN4CCCC4)n3C)cc2)C(=O)C[C@@H]([C@H]2CCc3ccccc32)C(=O)N2CCC[C@@](Cc3ccc(Cl)cc3)(C2)NC1=O.O=C(O)C(F)(F)F [Compound 96, (3S,7S,10S,13R)-6-(4-chloro-2-(4-(1-methyl-2-(pyrrolidin-1-ylmethyl)-1H-imidazol-5-yl)phenoxy)benzyl)-13-(4-chlorobenzyl)-3-((R)-2,3-dihydro-1H-inden-1-yl)-10-(methoxymethyl)-7-methyl-1,6,9,12-tetraazabicyclo[11.3.1]heptadecane-2,5,8,11-tetraone trifluoroacetate] | ring closure, yield of all isomers ([1]; from COC[C@H](NC(=O)[C@H](C)NCc1ccc(Cl)cc1Oc1ccc(-c2cnc(CN3CCCC3)n2C)cc1)C(=O)N[C@@]1(Cc2ccc(Cl)cc2)CCCN(C(=O)[C@@H](CC(=O)O)[C@H]2CCc3ccccc32)C1, amide bond, HATU/HOAt/2,6-lutidine, 1.04 mM, 40.0 °C, 17.0 h): 46%
12 | – | – | C[C@H]1C(=O)N2[C@@H](COC2(C)C)C(=O)N[C@@]2(Cc3ccc(Cl)cc3)CCCN(C2)C(=O)[C@H](Cc2ccccc2)CC(=O)N1Cc1ccc(Cl)cc1Oc1ccc(-c2cnc(CN(C)C)n2C)cc1 | ring closure, yield of all isomers ([1]; from C[C@H](NCc1ccc(Cl)cc1Oc1ccc(-c2cnc(CN(C)C)n2C)cc1)C(=O)N1[C@H](C(=O)N[C@@]2(Cc3ccc(Cl)cc3)CCCN(C(=O)[C@@H](CC(=O)O)Cc3ccccc3)C2)COC1(C)C, amide bond, HATU, 1.04 mM, 45.0 °C): 69%
